Patent publication US20030171544A1, “Alcohol dehydrogenase and use thereof” (DEGUSSA AG, priority 2001, published 2003)
Marks after values point to notes of the source that are not given here.

Test system: alcohol dehydrogenase (ADHF1)
Assay: Reduction of ketones with lyophilized recombinant ADHF1 crude extract, GC analysis
Type: biochemical, Pseudomonas fluorescens (DSM 50106)
Conditions: for Conversion: Table 1, GC analysis, 6.4 μmol substrate, 1.25 mg enzyme crude extract, 0.1 M Tris pH 8.0, 20% (v/v) isopropanol, room temperature, time 20-21 h
Experimental: The activity of lyophilized alcohol dehydrogenase is determined using acetophenone as model substrate. The standardized reaction mixture (250 μl) contains 6.4 μmol of substrate dissolved in isopropanol, 1.25 mg of enzyme (crude extract) in 0.1 M Tris buffer (pH 8.0) and 20% (v/v) isopropanol as substrate for NADH-recycling dehydrogenase. The reactions are carried out at room temperature, unless explicitly stated otherwise. All values were determined three times. After the reaction has finished, the reaction mixture is extracted with twice the amount of chloroform and the organic phase is then dried over sodium sulfate. The reaction products were analyzed isothermally at 120° C. by GC measurements (Shimadzu GC 14A, Tokyo, flame ionization detector, integrator C5RA) using a chiral column (heptakis (2,6-O-methyl-3-O-pentyl)-β-cyclodextrin, 25m×0.25mm ID, Macherey & Nagel, Düren). The retention times are 1.55 min for acetophenone, 2.77 min for (R)-α-phenylethanol and 2.99 min for (S)-α-phenylethanol. The absolute configuration was determined by using commercial standards. Further GC analyses were carried out at a temperature rising from 90° C. to 120° C. at a rate of 5° C./min. Here the retention times were 0.95 min for cyclopentanone, 1.37 min for cyclopentanol, 2.85 min for cycloheptanone, 4.29 min for cycloheptanol, 1.42 min for cyclohexanone and 2.12 min for cyclohexanol.

SMILES: O=C1CCCCCC1 [Cycloheptanone]
- Conversion: 51%

SMILES: O=C1CCCCC1 [Cyclohexanone]
- Conversion: 100%

SMILES: O=C1CCCC1 [Cyclopentanone]
- Conversion: 53%

SMILES: CC(=O)c1ccccc1 [Substrate 1, acetophenone]
- Conversion: 95^b %
- yield of (R)-α-phenylethanol (conversion of acetophenone by ADHF1): 95%
